In test [1] the test system is range of target microorganisms. Particulars: both in gas and MIC assays; cited from earlier work.
The subject of test [2] is nalidixic acid-resistant Salmonella Enterica serovar Typhimurium. Nature of the test: Wing wash model: Salmonella counts in rinsate of experimentally contaminated broiler wings. It counts as cell-based. How it is done:
As a non-limiting example, the efficacy of Sx on the reduction of nalidixic acid-resistant Salmonella spp. on experimentally contaminated broiler carcasses (using a wing wash model) was tested. Sx was tested at 100 ppm and 200 ppm, with or without lecithin and was compared with an untreated negative control group and peracetic Acid (PAA) at 200 ppm as a commercial comparator. […] Almost 0.6 to 3.0 log reduction has been observed in previous iterations. During those studies, the effectiveness of Sx was studied at different time intervals and fixed time interval. […] Whereas, based on literature and food safety inspection services (USDA) directive 7120.1, PAA has been recommended with the dose range of 50 ppm to 2000 ppm. Under field conditions, most of the establishments use 200 ppm as a whole carcass rinse. Therefore, in this iteration, Sx was compared with PAA at 200 ppm level. In this study, Sx was tested at 1.25% and 2.5% level which are equivalent to 100 ppm and 200 ppm of propionic acid concentration. Lecithin was added to the Sx solution at the rate of 0.02%. Lecithin is believed to enhance the cell wall penetration of propionic acid and isoamyl hexanoate leading to better antimicrobial activity.
For this study, a WHIRL-PAK® bag containing one pair of chicken wings was the experimental unit. On approximately day 47 of the broilers age, approximately 54 broilers were euthanized by severing the jugular vein after euthanization. The carcass was thoroughly washed using hot water. The feathers were removed using a mechanical plucker. The wings were separated from the whole carcass and preserved in a cooler containing ice. Each treatment group was represented by nine sample bags (replicates) containing one pair of wings. Three sample bags from each treatment group were pooled together and identified as first, second and third set as shown in Table 3.
To start with, eighteen pairs of wings were brought to the hood and sprayed with Salmonella typhimurium (Nalidixic Acid Resistant [NAR]) inoculum at the rate of 10 mL per pair. The carcasses were allowed to dry for 15 minutes. Following drying, eighteen pairs of wings were inserted into WHIRL-PAK bags at the rate of one pair per WHIRL-PAK bag. T1 bags were added with non-medicated, sterilized reverse osmosis (SRO) water at the rate of one liter per bag. T2-T6 bags were added with respective medicated, SRO water at the rate of one liter per bag. All the bags were incubated for 15 mins in a cooler containing ice cubes. After 15 minutes, the carcass in each bag was removed from the SRO water bag and inserted into a fresh WHIRL-PAK bag.
Approximately 100 mL of buffered peptone water was added into each bag and agitated for one minute. […]

Structures are written as SMILES. “And” between values parts separate entries of the source, which are not always exact repeats. Equal entries are not always repeated.

In the case of `CC(C)C(=O)O` [isobutyric acid], the Bioactivity by itself entry in test [1] is on record as “some limited bioactivity”.

Take `CC(=O)OO` [PAA 200 ppm, peracetic Acid]: the “Salmonella count (MPN)” value in test [2] (Salmonella count per mL of wing wash rinsate after 15 mins incubation in medicated SRO water, mean of 9 replicates, concentration in label) was 6.51E+05±5.68E+05 cfu/mL and 6.51E+05 cfu/mL. In addition, in test [2] (Salmonella count per mL of wing wash rinsate after 15 mins incubation, concentration in label), the “MPN (Actual numbers)” value is listed as 650,694. For the same compound, in test [2] (decrease of Salmonella count compared to untreated control, 15 mins incubation, P<0.05), the “% Reduction” value was 84% and 84.55%. In addition, in test [2] (overall reduction of salmonella count compared to untreated control, 15 mins incubation), the “Log Reduction” value is given as 0.77 Log.
